The values below come from publication PMC10175918 (Communications Biology, 2023).

Each structure is given as a SMILES string. Where two headings read alike, the source gives them in different places.

Test in all cases: TGFα-shedding assay-based GPCR screening with chimeric Gα subunit proteins
What all share (type): cell-based

Assay [1] concerns the target T1, 348 GPCRs (Homo sapiens, UniProt Q13255).
T1 construct: expressed in transfected cells; host or cells: HEK293A
As to conditions: 10µM, Favipiravir 100μM.

In assay [2] the target is T2, 348 GPCRs (Homo sapiens, UniProt Q5T848).
T2 construct: expressed in transfected cells; host or cells: HEK293A
T2 sequence (Q5T848 24-1215): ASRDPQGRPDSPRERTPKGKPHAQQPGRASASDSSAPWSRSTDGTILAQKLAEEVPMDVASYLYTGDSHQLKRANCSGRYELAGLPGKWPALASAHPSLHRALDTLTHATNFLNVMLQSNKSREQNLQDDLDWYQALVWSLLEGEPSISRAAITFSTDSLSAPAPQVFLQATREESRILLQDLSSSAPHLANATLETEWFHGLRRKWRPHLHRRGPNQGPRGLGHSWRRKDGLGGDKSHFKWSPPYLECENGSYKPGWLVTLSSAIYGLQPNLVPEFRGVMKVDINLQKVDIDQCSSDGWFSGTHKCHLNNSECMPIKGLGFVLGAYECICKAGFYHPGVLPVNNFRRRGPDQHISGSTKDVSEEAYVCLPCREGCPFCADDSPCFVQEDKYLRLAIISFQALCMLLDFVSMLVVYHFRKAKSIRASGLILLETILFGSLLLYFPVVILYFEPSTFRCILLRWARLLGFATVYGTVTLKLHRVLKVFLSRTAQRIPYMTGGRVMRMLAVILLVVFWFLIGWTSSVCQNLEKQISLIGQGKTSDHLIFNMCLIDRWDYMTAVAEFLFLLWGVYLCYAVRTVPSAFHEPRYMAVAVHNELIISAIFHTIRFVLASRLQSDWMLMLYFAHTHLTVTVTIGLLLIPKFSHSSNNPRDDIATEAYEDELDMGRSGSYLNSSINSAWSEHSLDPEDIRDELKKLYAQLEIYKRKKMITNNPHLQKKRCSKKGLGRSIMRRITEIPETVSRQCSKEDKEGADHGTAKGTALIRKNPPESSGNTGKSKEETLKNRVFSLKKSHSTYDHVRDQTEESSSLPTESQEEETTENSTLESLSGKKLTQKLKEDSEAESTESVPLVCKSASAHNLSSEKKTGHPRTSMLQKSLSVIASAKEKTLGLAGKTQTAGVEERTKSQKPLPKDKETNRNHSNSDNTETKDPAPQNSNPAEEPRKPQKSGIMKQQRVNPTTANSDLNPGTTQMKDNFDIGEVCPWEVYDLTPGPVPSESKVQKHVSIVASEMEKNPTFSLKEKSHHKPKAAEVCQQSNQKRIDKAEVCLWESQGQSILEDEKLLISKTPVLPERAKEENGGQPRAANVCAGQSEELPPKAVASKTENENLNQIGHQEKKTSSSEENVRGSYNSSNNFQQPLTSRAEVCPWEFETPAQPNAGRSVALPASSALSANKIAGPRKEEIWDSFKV
As to conditions: 10µM, Favipiravir 100μM.

In assay [3] the target is T3, 348 GPCRs (Homo sapiens, UniProt P30556).
T3 construct: expressed in transfected cells; host or cells: HEK293A
T3 sequence (P30556 1-359): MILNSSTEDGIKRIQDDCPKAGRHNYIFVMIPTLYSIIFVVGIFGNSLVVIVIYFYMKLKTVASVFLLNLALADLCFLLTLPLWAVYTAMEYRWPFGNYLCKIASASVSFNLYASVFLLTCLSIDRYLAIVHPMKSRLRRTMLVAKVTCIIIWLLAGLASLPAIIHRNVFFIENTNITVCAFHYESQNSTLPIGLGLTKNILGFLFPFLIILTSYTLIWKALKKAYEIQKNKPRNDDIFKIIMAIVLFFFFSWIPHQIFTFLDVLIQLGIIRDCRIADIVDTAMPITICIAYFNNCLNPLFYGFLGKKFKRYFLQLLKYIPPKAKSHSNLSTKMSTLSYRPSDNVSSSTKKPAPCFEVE
As to conditions: 10µM, Favipiravir 100μM.

The target in assay [4] is T4, 348 GPCRs (Homo sapiens, UniProt P49238).
T4 construct: expressed in transfected cells; host or cells: HEK293A
T4 sequence (P49238 1-355): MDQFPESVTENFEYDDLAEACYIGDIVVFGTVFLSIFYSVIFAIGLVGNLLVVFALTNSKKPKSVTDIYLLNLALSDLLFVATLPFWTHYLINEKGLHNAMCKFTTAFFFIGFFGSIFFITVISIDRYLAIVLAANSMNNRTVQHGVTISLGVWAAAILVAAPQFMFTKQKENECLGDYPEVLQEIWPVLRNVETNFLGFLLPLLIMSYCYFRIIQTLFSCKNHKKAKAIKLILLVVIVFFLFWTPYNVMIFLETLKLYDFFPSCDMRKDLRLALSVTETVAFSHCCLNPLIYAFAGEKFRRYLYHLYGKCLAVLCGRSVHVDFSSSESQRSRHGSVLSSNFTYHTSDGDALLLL
Conditions: GPCR CX3CR1 (chemokine (C-X3-C motif) receptor 1).

Assay [5] concerns the target T5, 348 GPCRs (Homo sapiens, UniProt Q99705).
T5 construct: expressed in transfected cells; host or cells: HEK293A

The target of assay [6] is T6, 348 GPCRs (Homo sapiens, UniProt P25105).
T6 construct: expressed in transfected cells; host or cells: HEK293A

The target in assay [7] is T7, 348 GPCRs (Homo sapiens, UniProt O15218).
T7 construct: expressed in transfected cells; host or cells: HEK293A
Conditions: 10µM, Favipiravir 100μM.

The target in assay [8] is T8, 348 GPCRs (Homo sapiens, UniProt Q9HC97).
T8 construct: expressed in transfected cells; host or cells: HEK293A
Conditions: 10µM, Favipiravir 100μM.

The mark [9] stands for this setting: GRM1 (glutamate receptor, metabotropic 1), read-out: % GPCR activation compared to TPA.
[10] abbreviates: GPR158 (G Protein-Coupled Receptor 158), read-out: % GPCR activation compared to TPA.
The mark [11] stands for this setting: AGTR1 (angiotensin II receptor, type 1), read-out: % GPCR activation compared to TPA.
Where [12] appears, read: GPCR MCHR1 (melanin concentrating hormone receptor 1), read-out: % GPCR activation compared to TPA.
Setting [13] is: GPCR PAFR (platelet activating factor receptor), read-out: % GPCR activation compared to TPA.
The mark [14] stands for this setting: GPR182 (G protein-coupled receptor 182), read-out: % GPCR activation compared to TPA.
Setting [15] is: GPR35 (G protein-coupled receptor 35), read-out: % GPCR activation compared to TPA.
The mark [16] stands for this setting: read-out: % GPCR activation compared to TPA, GRM1 (glutamate receptor, metabotropic 1).
[17] abbreviates: read-out: % GPCR activation compared to TPA, GPR158 (G Protein-Coupled Receptor 158).
[18] abbreviates: read-out: % GPCR activation compared to TPA, AGTR1 (angiotensin II receptor, type 1).
The mark [19] stands for this setting: read-out: % GPCR activation compared to TPA, GPCR MCHR1 (melanin concentrating hormone receptor 1).
Where [20] appears, read: read-out: % GPCR activation compared to TPA, GPCR PAFR (platelet activating factor receptor).
Setting [21] is: read-out: % GPCR activation compared to TPA, GPR182 (G protein-coupled receptor 182).
Setting [22] is: read-out: % GPCR activation compared to TPA, GPR35 (G protein-coupled receptor 35).

T5 sequence (Q99705 whole entry): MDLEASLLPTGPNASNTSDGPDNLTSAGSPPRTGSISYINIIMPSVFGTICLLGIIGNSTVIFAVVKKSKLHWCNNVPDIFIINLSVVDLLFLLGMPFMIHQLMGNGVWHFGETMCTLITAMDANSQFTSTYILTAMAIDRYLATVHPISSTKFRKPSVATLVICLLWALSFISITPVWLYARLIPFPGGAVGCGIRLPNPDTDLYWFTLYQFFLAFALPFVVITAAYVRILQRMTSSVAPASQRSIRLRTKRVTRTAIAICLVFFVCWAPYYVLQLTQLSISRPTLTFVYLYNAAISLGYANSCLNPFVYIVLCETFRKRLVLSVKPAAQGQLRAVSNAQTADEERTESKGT
T7 sequence (O15218 whole entry): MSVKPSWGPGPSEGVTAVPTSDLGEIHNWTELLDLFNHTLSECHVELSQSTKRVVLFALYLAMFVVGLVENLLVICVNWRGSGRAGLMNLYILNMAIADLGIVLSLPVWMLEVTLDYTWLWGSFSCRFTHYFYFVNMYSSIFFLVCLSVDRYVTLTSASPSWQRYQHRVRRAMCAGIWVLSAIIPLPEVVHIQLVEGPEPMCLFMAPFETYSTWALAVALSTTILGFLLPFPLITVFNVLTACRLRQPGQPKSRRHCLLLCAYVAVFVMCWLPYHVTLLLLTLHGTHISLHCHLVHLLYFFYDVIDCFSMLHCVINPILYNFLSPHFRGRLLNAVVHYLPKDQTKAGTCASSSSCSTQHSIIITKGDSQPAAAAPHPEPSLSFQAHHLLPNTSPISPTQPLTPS
T8 sequence (Q9HC97 whole entry): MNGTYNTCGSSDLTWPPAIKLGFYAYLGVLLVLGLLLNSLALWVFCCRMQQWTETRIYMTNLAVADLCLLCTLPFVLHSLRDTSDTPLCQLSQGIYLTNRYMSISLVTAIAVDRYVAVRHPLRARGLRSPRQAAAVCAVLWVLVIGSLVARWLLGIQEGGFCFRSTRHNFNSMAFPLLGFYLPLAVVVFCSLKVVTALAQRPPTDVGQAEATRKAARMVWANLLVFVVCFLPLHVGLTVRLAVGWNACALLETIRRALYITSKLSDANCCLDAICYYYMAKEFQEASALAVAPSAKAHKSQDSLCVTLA
T6 sequence (P25105 whole entry): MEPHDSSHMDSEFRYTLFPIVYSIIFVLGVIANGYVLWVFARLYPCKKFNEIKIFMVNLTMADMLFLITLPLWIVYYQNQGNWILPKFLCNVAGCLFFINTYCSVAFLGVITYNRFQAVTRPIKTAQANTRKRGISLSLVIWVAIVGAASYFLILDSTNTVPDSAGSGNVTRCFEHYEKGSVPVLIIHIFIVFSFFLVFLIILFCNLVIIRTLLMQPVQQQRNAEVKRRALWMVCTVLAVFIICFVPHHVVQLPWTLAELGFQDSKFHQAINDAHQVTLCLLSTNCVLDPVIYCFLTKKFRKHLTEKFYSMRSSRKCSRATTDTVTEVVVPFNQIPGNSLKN
T1 sequence (Q13255 19-1194): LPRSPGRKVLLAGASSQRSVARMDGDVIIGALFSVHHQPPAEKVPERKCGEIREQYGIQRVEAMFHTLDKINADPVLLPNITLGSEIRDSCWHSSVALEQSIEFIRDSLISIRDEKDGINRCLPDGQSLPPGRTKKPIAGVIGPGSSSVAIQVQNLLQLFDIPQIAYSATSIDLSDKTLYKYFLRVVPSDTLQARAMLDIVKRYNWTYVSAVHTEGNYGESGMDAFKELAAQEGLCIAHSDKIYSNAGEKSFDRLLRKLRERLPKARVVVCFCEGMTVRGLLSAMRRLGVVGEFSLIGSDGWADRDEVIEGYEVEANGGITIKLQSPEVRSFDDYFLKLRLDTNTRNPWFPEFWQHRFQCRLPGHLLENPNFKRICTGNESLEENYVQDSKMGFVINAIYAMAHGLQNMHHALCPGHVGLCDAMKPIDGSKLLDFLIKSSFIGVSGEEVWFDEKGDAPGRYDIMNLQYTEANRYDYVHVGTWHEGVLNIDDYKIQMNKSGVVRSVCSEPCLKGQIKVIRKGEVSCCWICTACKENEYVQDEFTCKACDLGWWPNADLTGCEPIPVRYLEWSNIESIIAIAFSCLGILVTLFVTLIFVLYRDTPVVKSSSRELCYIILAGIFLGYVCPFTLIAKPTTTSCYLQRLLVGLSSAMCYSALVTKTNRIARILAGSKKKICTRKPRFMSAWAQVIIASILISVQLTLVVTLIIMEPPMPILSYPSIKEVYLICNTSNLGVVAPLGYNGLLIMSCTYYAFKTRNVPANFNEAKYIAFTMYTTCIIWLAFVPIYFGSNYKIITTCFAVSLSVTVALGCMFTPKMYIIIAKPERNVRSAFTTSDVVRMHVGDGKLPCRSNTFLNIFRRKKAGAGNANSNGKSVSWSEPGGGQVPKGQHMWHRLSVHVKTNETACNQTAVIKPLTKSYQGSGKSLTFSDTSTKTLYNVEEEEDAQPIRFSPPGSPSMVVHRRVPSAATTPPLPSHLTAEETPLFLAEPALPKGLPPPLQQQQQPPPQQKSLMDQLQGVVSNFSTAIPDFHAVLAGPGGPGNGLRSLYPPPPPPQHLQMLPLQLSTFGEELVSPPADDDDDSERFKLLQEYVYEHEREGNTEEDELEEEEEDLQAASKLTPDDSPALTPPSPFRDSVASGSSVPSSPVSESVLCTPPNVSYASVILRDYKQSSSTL

Consider `CC(C)C(=O)OC[C@H]1O[C@@H](n2ccc(NO)nc2=O)[C@H](O)[C@@H]1O` [molnupiravir], for which the activation at 10 µM was -0.761% on 348 GPCRs [1] (setting [9]); 1.57% on 348 GPCRs [2] (setting [10]); -0.396% at 348 GPCRs [3] (setting [11]); -2.69% at 348 GPCRs [5] (setting [12]); -6.72% at 348 GPCRs [6] (setting [13]); -3.01% on 348 GPCRs [8] (setting [15]). Further, the “% GPCR activation compared to TPA” value on 348 GPCRs [4] (10µM) is listed as -0.5795%. Further, at 348 GPCRs [7] (setting [14]), the activation at 100 µM stood at 0.0693%.

In the case of `CC(C)OC(=O)[C@H](C)N[P@](=O)(OC[C@H]1O[C@@H](n2ccc(=O)[nH]c2=O)[C@](C)(F)[C@@H]1O)Oc1ccccc1` [sofosbuvir], the activation at 10 µM on 348 GPCRs [1] (setting [16]) is 0.735%; on 348 GPCRs [2] (setting [17]), 3.31%; at 348 GPCRs [3] (setting [18]), 2.52%; at 348 GPCRs [5] (setting [19]) it was -4.22%; at 348 GPCRs [6] (setting [20]) it was -7.19%; on 348 GPCRs [8] (setting [22]), -7.86%. Moreover, at 348 GPCRs [4] (10µM), the “% GPCR activation compared to TPA” value came to 0.2471%. Further, the activation at 100 µM at 348 GPCRs [7] (setting [21]) is 0.0893%.

In the case of `N#C[C@@]1(c2ccc3c(N)ncnn23)O[C@H](CO)[C@@H](O)[C@H]1O` [GS441524], the activation at 10 µM on 348 GPCRs [1] (setting [9]) is -0.549%; at 348 GPCRs [2] (setting [10]), 0.213%; at 348 GPCRs [3] (setting [11]), 1.08%; on 348 GPCRs [5] (setting [12]) it was -1.77%; on 348 GPCRs [6] (setting [13]), -1.62%; on 348 GPCRs [8] (setting [15]), 4.18%. Also, at 348 GPCRs [4] (10µM), the “% GPCR activation compared to TPA” value was -0.5209%. In addition, the activation at 100 µM on 348 GPCRs [7] (setting [14]) was 0.124%.

As for `NC(=O)c1nc(F)cnc1O` [favipiravir, 6-fluoro-3-hydroxy-2-pyrazinecarboxamide], the activation at 10 µM is -0.946% at 348 GPCRs [1] (setting [9]), 2.24% at 348 GPCRs [2] (setting [10]), 0.178% on 348 GPCRs [3] (setting [11]) and 3% on 348 GPCRs [8] (setting [15]). Also, the “% GPCR activation compared to TPA” value on 348 GPCRs [4] (100μM) is reported as 0.06344%. Also, the activation at 100 µM on 348 GPCRs [5] (GPCR MCHR1 (melanin concentrating hormone receptor 1), 100μM, read-out: % GPCR activation compared to TPA) is -2.9%; on 348 GPCRs [6] (GPCR PAFR (platelet activating factor receptor), 100μM, read-out: % GPCR activation compared to TPA), -0.53%; at 348 GPCRs [7] (setting [14]), -0.288%.

In the case of `CCC(CC)COC(=O)[C@H](C)N[P@](=O)(OC[C@H]1O[C@@](C#N)(c2ccc3c(N)ncnn23)[C@H](O)[C@@H]1O)Oc1ccccc1` [remdesivir], the activation at 10 µM on 348 GPCRs [1] (setting [16]) was -0.568%; at 348 GPCRs [2] (setting [17]), 0.972%; on 348 GPCRs [3] (setting [18]), 1.2%; at 348 GPCRs [5] (setting [19]), -1.97%; at 348 GPCRs [6] (setting [20]) it was 6.57%; on 348 GPCRs [8] (setting [22]) it was 0.537%. Moreover, the “% GPCR activation compared to TPA” value on 348 GPCRs [4] (10µM) stood at 2.076%. Besides, the activation at 100 µM on 348 GPCRs [7] (setting [21]) was found to be 2.44%.
